This note sets out measurements from patent publication US20030050237A1, “Prolonged delivery of peptides” (Scios Inc., priority 1993, published 2003).

This assay can be described thus: Insulinotropin infusion, plasma glucose levels in patients with NIDDM. Conditions: raising peptide around meal time alone, for periods of up to one hour. Format: in vivo.

For “His-Asp-Glu-Phe-Glu-Arg-His-Ala-Glu-Gly-Thr-Phe-Thr-Ser-Asp-Val-Ser-Ser-Tyr-Leu-Glu-Gly-Gln-Ala-Ala-Lys-Glu-Phe-Ile-Ala-Trp-Leu-Val-Lys-Gly-Arg-Gly [GLP-1]”, the glycemic control entry is reported as “will not adequately control the glucose levels”.
